These results are taken from patent publication US10750742B2, “Pesticidally active pyrazole derivatives” (SYNGENTA PARTICIPATIONS AG, priority 2015, dated 2020).

What all share (assay type): in vivo
The subject of assay [1] is Spodoptera littoralis. The experiment in a line: Comparison: insecticidal activity against Spodoptera littoralis, larvicide L-3, feeding/contact, soybean plants. Particulars: 120 h. On the procedure: (§1) Biological Comparison Data:
(§2) Compound A and B are disclosed in WO2014/122083 as example (Ic-1) (p. 76) and (lc-2) (p. 82, Table 3). The activities of compounds A and B to treat different pests are compared with the activities of compound 4, 6, 15 and 35 according to the present invention. The tests are carried out at different concentrations (ppm).
a) Insecticidal Activity Against Spodoptera littoralis (Egyptian Cotton Leaf Worm, Larvicide L-3, Feeding/Contact)
Soybean plants were sprayed with diluted test solutions in an application chamber. The plants (2 replicates) were infested with 10 L3 larvae 1 day after treatment. Samples were checked 5 days after infestation for mortality, feeding behavior, and growth regulation.

The subject of assay [2] is Myzus persicae. Nature of the assay: Myzus persicae (green peach aphid), sucrose solution / Parafilm test. The conditions noted are these: 120 h, test rate of 12 ppm, sucrose solution, 5 days after infestation, read-out: mortality. In a few lines:
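Compound mixed into sucrose solution at 12.5 ppm under stretched Parafilm; aphid-infested pea seedlings set on the membrane and plate inverted so insects feed through it. Mortality assessed 5 days after infestation.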

Assay [3] concerns Myzus persicae. Nature of the assay: Myzus persicae (green peach aphid), sunflower leaf disc spray test. Particulars: foliar, 144 h, application rate 200 ppm, mixed ages, 6 DAT, read-out: mortality.
For a further assay, the system named is Euschistus heros. The experiment in a line: Euschistus heros (neotropical brown stink bug), soybean leaf test. The conditions noted are these: 120 h, application rate 200 ppm, N2 nymphs, 5 days after infestation, read-out: effect in at least one of the two categories (mortality or growth inhibition). On the procedure: Euschistus heros (Neotropical Brown Stink Bug):
Soybean leaves on agar in 24-well microtiter plates were sprayed with aqueous test solutions prepared from 10′000 ppm DMSO stock solutions. After drying the leaves were infested with N2 nymphs. The samples were assessed for mortality and growth inhibition in comparison to untreated samples 5 days after infestation.

The subject of assay [4] is Spodoptera littoralis. Nature of the assay: Spodoptera littoralis (Egyptian cotton leaf worm), cotton leaf disc spray test. Particulars: foliar, 72 h, application rate 200 ppm, L1 larvae, 3 days after infestation, read-out: control (at least one of mortality, anti-feedant effect, growth inhibition). The procedure, abridged: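 Cotton leaf discs on agar were sprayed with aqueous dilutions of 10′000 ppm DMSO stocks, dried and infested with five L1 larvae. Mortality, anti-feedant effect and growth inhibition were scored against untreated samples 3 days after infestation. Control = any of these higher than untreated.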

In the next assay the test system is Diabrotica balteata. Nature of the assay: Diabrotica balteata (corn root worm), maize sprout test. The conditions noted are these: 96 h, application rate 200 ppm, L2 larvae, 4 days after infestation, read-out: control (mortality and growth inhibition). The procedure:
Diabrotica balteata, (Corn Root Worm)
Maize sprouts, placed on an agar layer in 24-well microtiter plates were treated with aqueous test solutions prepared from 10′000 ppm DMSO stock solutions by spraying. After drying, the plates were infested with L2 larvae (6 to 10 per well). The samples were assessed for mortality and growth inhibition in comparison to untreated samples 4 days after infestation.

Assay [5] deals with Thrips tabaci. The experiment in a line: Thrips tabaci (onion thrips), sunflower leaf disc test. Particulars: foliar, 144 h, application rate 200 ppm, mixed ages, 6 days after infestation, read-out: control (mortality). On the procedure: Thrips tabaci (Onion Thrips):
(§3) Sunflower leaf discs were placed on agar in 24-well microtiter plates and sprayed with aqueous test solutions prepared from 10′000 ppm DMSO stock solutions. After drying the leaf discs were infested with a thrips population of mixed ages. The samples were assessed for mortality 6 days after infestation.

Another assay deals with Plutella xylostella. The experiment in a line: Plutella xylostella (diamond back moth), artificial diet test. The conditions noted are these: 120 h, application rate 200 ppm, L2 larvae, 5 days after infestation, read-out: control (mortality and growth inhibition). The procedure: Plutella xylostella (Diamond Back Moth):
24-well microtiter plates with artificial diet were treated with aqueous test solutions prepared from 10′000 ppm DMSO stock solutions by pipetting. After drying, the plates were infested with L2 larvae (10 to 15 per well). The samples were assessed for mortality and growth inhibition in comparison to untreated samples 5 days after infestation.

Assay [6] relates to Thrips tabaci. The experiment in a line: Comparison: insecticidal activity against Thrips tabaci, sunflower leaf discs. Particulars: Thrips tabaci, foliar, 144 h, 6 days after infestation, read-out: Mortality (%). The procedure: as §1, §2
b) Insecticidal Activity Against Thrips tabaci (Onion Thrips):
as §3

A further assay relates to Tetranychus urticae. The experiment in a line: Tetranychus urticae (two-spotted spider mite), bean leaf disc test. The conditions noted are these: foliar, 192 h, application rate 200 ppm, 8 days after infestation, read-out: control (mortality on mixed population, mobile stages). The procedure: Tetranychus urticae (Two-Spotted Spider Mite):
Bean leaf discs on agar in 24-well microtiter plates were sprayed with aqueous test solutions prepared from 10′000 ppm DMSO stock solutions. After drying the leaf discs were infested with a mite population of mixed ages. The samples were assessed for mortality on mixed population (mobile stages) 8 days after infestation.

Where two headings read alike, the source gives them in different places. Some results are limits rather than exact numbers.

As for `Cn1nc(C(F)(F)C(F)(F)F)c(C(F)(F)F)c1-n1cc(-c2ccc(Cl)c(C(=O)NC3CC3)c2)cn1` [A, reference compound], in the assay with Spodoptera littoralis [1], the mortality (usually the percentage killed) at 0.2 ppm is 0%, the mortality at 0.8 ppm was 15%, the mortality at 3 ppm was 55% and the mortality at 12.5 ppm was determined as 85%.

As for `Cn1nc(OC(F)C(F)(F)C(F)(F)F)c(C(F)(F)F)c1-n1cc(-c2ccc(Cl)c(C(=O)NC3(C#N)CC3)c2)cn1` (stereo not shown) [compound 4], the mortality at 12 ppm with Myzus persicae [2] is at least 80%. Also, the mortality at 200 ppm with Myzus persicae [3], in the assay with Diabrotica balteata, in the assay on Thrips tabaci [5], in the assay on Plutella xylostella and with Tetranychus urticae was at least 80% in each case. Besides, the percent effect (mortality or growth inhibition) at 200 ppm in the assay on Euschistus heros was at least 80%. For the same compound, the percent control (mortality, anti-feedant effect or growth inhibition) at 200 ppm with Spodoptera littoralis [4] is at least 80%. Besides, the mortality at 0.05 ppm in the assay on Thrips tabaci [6] (0.05 ppm) stood at 65%. Besides, the mortality at 0.2 ppm in the assay with Thrips tabaci [6] (0.2 ppm) was 90%. The mortality at 0.8 ppm in the assay with Thrips tabaci [6] (0.8 ppm) was found to be 100%. Moreover, the mortality at 3 ppm in the assay with Thrips tabaci [6] (3 ppm) was 100%. In the assay with Thrips tabaci [6], the mortality at 12.5 ppm was 100%.

Consider `Cn1nc(OC(F)(F)C(F)C(F)(F)F)c(C(F)(F)F)c1-n1cc(-c2ccc(Cl)c(C(=O)NC3CC3)c2)cn1` (stereo not shown) [compound 6], for which the mortality at 12 ppm with Myzus persicae [2] was at least 80%. Besides, the mortality at 200 ppm in the assay with Myzus persicae [3], in the assay on Diabrotica balteata, in the assay with Thrips tabaci [5], in the assay with Plutella xylostella and in the assay on Tetranychus urticae was at least 80% throughout. Further, the mortality at 0.2 ppm in the assay with Spodoptera littoralis [1] (0.2 ppm, L3 larvae, 5 days after infestation, read-out: Mortality (%)) was 0%. Besides, the mortality at 0.8 ppm with Spodoptera littoralis [1] (0.8 ppm, L3 larvae, 5 days after infestation, read-out: Mortality (%)) was determined as 0%. The mortality at 3 ppm in the assay with Spodoptera littoralis [1] (3.0 ppm, L3 larvae, 5 days after infestation, read-out: Mortality (%)) came to 100%. For the same compound, the mortality at 12.5 ppm in the assay on Spodoptera littoralis [1] (12.5 ppm, L3 larvae, 5 days after infestation, read-out: Mortality (%)) came out at 100%. Besides, in the assay with Euschistus heros, the percent effect (mortality or growth inhibition) at 200 ppm is at least 80%. In the assay with Spodoptera littoralis [4], the percent control (mortality, anti-feedant effect or growth inhibition) at 200 ppm was at least 80%.

Take `Cn1nc(OC(F)(F)C(F)OC(F)(F)F)c(C(F)(F)F)c1-n1cc(-c2ccc(Cl)c(C(=O)NC3(C#N)CC3)c2)cn1` (stereo not shown) [compound 15]: the mortality at 12 ppm in the assay with Myzus persicae [2] was at least 80%. Further, the mortality at 200 ppm was at least 80% with Myzus persicae [3]; at least 80% in the assay on Diabrotica balteata; at least 80% in the assay on Thrips tabaci [5]; at least 80% with Plutella xylostella; 100% with Thrips tabaci [6] (200 ppm); at least 80% in the assay on Tetranychus urticae. Further, the percent effect (mortality or growth inhibition) at 200 ppm in the assay with Euschistus heros was at least 80%. In the assay on Spodoptera littoralis [4], the percent control (mortality, anti-feedant effect or growth inhibition) at 200 ppm is at least 80%. Further, in the assay on Thrips tabaci [6] (0.781 ppm), the mortality at 0.781 ppm was found to be 0%. The mortality at 3.12 ppm in the assay on Thrips tabaci [6] (3.12 ppm) came to 90%. Also, the mortality at 12.5 ppm in the assay with Thrips tabaci [6] came to 90%. For the same compound, the mortality at 50 ppm in the assay with Thrips tabaci [6] (50 ppm) came to 100%.

For the compound `Cn1nc(OC(F)(F)C(F)C(F)(F)F)c(C(F)(F)F)c1-n1cc(-c2ccc(F)c(C(=O)NC3(C#N)CC3)c2)cn1` (stereo not shown) [compound 59], the mortality at 12 ppm in the assay on Myzus persicae [2] is at least 80%. Besides, the mortality at 200 ppm in the assay on Myzus persicae [3], in the assay with Diabrotica balteata, in the assay with Thrips tabaci [5], in the assay with Plutella xylostella and with Tetranychus urticae was at least 80% each time. Besides, the percent effect (mortality or growth inhibition) at 200 ppm in the assay on Euschistus heros was at least 80%. Moreover, the percent control (mortality, anti-feedant effect or growth inhibition) at 200 ppm in the assay on Spodoptera littoralis [4] was at least 80%.

With `Cn1nc(OC(F)(F)C(F)C(F)(F)F)c(C(F)(F)F)c1-n1cc(-c2ccc(F)c(C(=O)NC3CC3)c2)cn1` (stereo not shown) [compound 60], in the assay with Myzus persicae [2], the mortality at 12 ppm is at least 80%. In addition, the mortality at 200 ppm with Myzus persicae [3], in the assay with Diabrotica balteata, with Thrips tabaci [5], in the assay on Plutella xylostella and in the assay with Tetranychus urticae was at least 80% each time. For the same compound, in the assay on Euschistus heros, the percent effect (mortality or growth inhibition) at 200 ppm was at least 80%. Also, the percent control (mortality, anti-feedant effect or growth inhibition) at 200 ppm with Spodoptera littoralis [4] was at least 80%.
